{"source": "patent US5069812A", "about": "“Bleach/builder precursors” (priority 1990, dated 1991)", "key": {"[1]": {"assay": "Stain bleaching on tea-stained cotton (Terg-O-Tometer wash, reflectance change)", "details": "40° C., 15 minutes, BC1 cloth, pH = 9.0-9.5, [precursor] = 6.2 × 10^-4 M, [H2O2] = 6.25 × 10^-3 M; corrected for H2O2 and detergent alone", "procedure": "Typically, cotton test pieces (4 in.×4 in.) stained with the tea are washed in a Terg-O-Tometer in 1 l. of aqueous solution containing a given level of bleach precursor, hydrogen peroxide, buffer, and surfactant (generally sodium dodecylbenzenesulfonate).\nWashes are carried out at 40° C. for 15 minutes. Stain bleaching is measured reflectrometrically using a Colorgard System/05 Reflectometer. Bleaching is indicated by an increase in reflectance, reported as ΔR. In general a ΔR of one unit is perceivable in a paired comparison while ΔR of two units is perceivable monadically. In reporting the reflectance change, the change in reflectance caused by general detergency and bleaching by the excess hydrogen peroxide has been accounted for. Thus ΔR can actually be expressed as: ΔR=(the value of the Reflectance of stained fabric washed with precursor, H2 O2 and detergent minus the value of the Reflectance of stained fabric before washing) minus (the value of the Reflectance of stained fabric washed with H2 O2 and detergent alone minus the value of the Reflectance of stained fabric before washing).\nThe formulation of the detergent base used for the bleaching test is as follows: […]"}, "[2]": {"assay": "Peracid generation from precursors (perhydrolysis yield)", "details": "40° C., [BPD] = 6.24 × 10^-4 M, [H2O2] = 6.24 × 10^-3 M", "procedure": "The precursors described herein can be used to generate peroxycarbonic acid bleaches in basic aqueous solution containing a source of hydrogen peroxide and, optimally, may contain typical detergent ingredients. […] The hydrogen peroxide source is added just prior to addition of the precursor. Ten milliliter aliquots of solution are withdrawn from the beaker at regular intervals and are added to a 250 ml titration flask containing crushed ice (150 g), glacial acetic acid (30 ml) and 4% aqueous potassium iodide (5 ml). After development for ten minutes with occasional agitation, the iodine produced is titrated with standard sodium thiosulfate solution. Time zero is taken as the point of introduction of precursor into the peroxyide solution. Precursor perhydrolysis experiments are generally carried out for a maximum of 15 minutes.\nSince hydrogen peroxide itself contributes to the total active oxygen in these titrations, controls or \"blanks\" are obtained by carrying out a perhydrolysis experiment in the absence of precursor. These hydrogen peroxide blanks are subtracted from the total active oxygen titration in the presence of bleach precursor to give the level of active oxygen produced by precursor perhydrolysis.\nPeroxycarbonic acid generation is determined at pH 8, 9, and 10. Borax buffer is used for experiments at pH 9 and 10 while phosphate buffer is employed for experiments carried out at pH 8. Adjustment of the buffer systems at 40° C. to the exact pH is carried out with 1M hydrochloric acid or sodium hydroxide solution."}, "[3]": {"assay": "Determination of calcium binding (Ca ion selective electrode titration)", "type": "physicochemical", "details": "pH 10, 0.05 g/l solution, ionic strength 0.02-0.03M (NaCl), titrated with 0.02M CaCl2", "procedure": "Calcium binding data was obtained at a pH of 10 by titrating 100 ml of 0.05 g/l precursor solution at an ionic strength of 0.02-0.03M (NaCl) with a 0.02M CaCl2 solution. A Radiometer calcium ion selective electrode was used to measure free Ca^++ ion concentration of the solutions. Data was corrected for dilution during each titration."}, "[4]": {"assay": "Biodegradability (statement, no test described)", "details": "chelidamic acid moiety"}}}
{"compound": "O=C(Oc1cc(C(=O)O)nc(C(=O)O)c1)c1ccccc1.[Na].[Na]", "note": "[BPD, Disodium, 4-Benzoyloxy-2,6-Pyridinedicarboxylic Acid]", "values": [{"measurement": "Bleaching Performance Δ R", "setting": "[1]", "result": "> 6.0"}, {"measurement": "Perhydrolysis yields from BPD (peroxycarbonic acid yield as a percent of theoretical), 1 minute", "setting": "[2]; pH 10, 1 minute", "result": 91.35, "unit": "%"}, {"measurement": "Perhydrolysis yields from BPD (peroxycarbonic acid yield as a percent of theoretical), 8 minutes", "setting": "[2]; pH 10, 8 minutes", "result": 17.63, "unit": "%"}, {"measurement": "Perhydrolysis yields from BPD (peroxycarbonic acid yield as a percent of theoretical), 15 minutes", "setting": "[2]; pH 10, 15 minutes", "result": 0, "unit": "%"}]}
{"compound": "O=C(Oc1cc(C(=O)O)nc(C(=O)O)c1)c1cccc(CCl)c1", "note": "[CBPD, Disodium, 4-(3-Chloromethyl)benzoyloxy-2,6-Pyridinedicarboxylic Acid]", "values": [{"measurement": "Bleaching Performance Δ R", "setting": "[1]", "result": "> 6.0"}]}
{"compound": "O=P(O)(O)OP(=O)(O)OP(=O)(O)O", "note": "[Sodium Tripolyphosphate]", "values": [{"measurement": "Binding Constants Log KCa", "setting": "[3]", "result": 5.85}]}
{"compound": "C[N+](C)(C)CCOC(=O)Oc1cc(C(=O)O)nc(C(=O)O)c1", "note": "[CCPD, Disodium, 4-Choline Carbonate-2,6-Pyridinedicarboxylic Acid]", "values": [{"measurement": "Bleaching Performance Δ R", "setting": "[1]", "result": "> 15.0"}]}
{"compound": "O=C(O)c1cc(O)cc(C(=O)O)n1", "note": "[Chelidamic Acid, 1,4-Dihydro-4-oxo-2,6-pyridine dicarboxylic acid]", "values": [{"measurement": "biodegradability", "setting": "[4]", "result": "biodegradable"}, {"measurement": "Binding Constants Log KCa", "setting": "[3]", "result": 5.70}]}
